The results in this text go back to ChEMBL document CHEMBL4765489, “A FabG inhibitor targeting an allosteric binding site inhibits several orthologs from Gram-negative ESKAPE pathogens” (Bioorg Med Chem, 2021).

One test deals with Pseudomonas aeruginosa. The test is described as follows: Allosteric binding affinity to Pseudomonas aeruginosa N-terminal His6-tagged FabG expressed in Escherichia coli BL21 (DE3) assessed as protein destabilization by measuring decrease in melting temperature at 1 mM incubated for 15 mins by Sypro orange dye based differential scanning fluorimetry.
Test [1] can be described thus: Inhibition of Salmonella typhimurium N-terminal His6-tagged FabG expressed in Escherichia coli BL21 (DE3) using 3-OHdNAC as substrate assessed as NADPH formation incubated for 2 hrs in presence of NADP by spectrophotometric analysis. More on the design: species or system Salmonella enterica subsp. enterica serovar Typhimurium.
The next test relates to Klebsiella pneumoniae. The test is described as follows: Allosteric binding affinity to Klebsiella pneumoniae N-terminal His6-tagged FabG expressed in Escherichia coli BL21 (DE3) assessed as protein destabilization by measuring decrease in melting temperature at 1 mM incubated for 15 mins by Sypro orange dye based differential scanning fluorimetry.
The subject of a further test is Escherichia coli. The test is described as follows: Allosteric binding affinity to Escherichia coli N-terminal His6-tagged FabG expressed in Escherichia coli BL21 (DE3) assessed as protein destabilization by measuring decrease in melting temperature at 1 mM incubated for 15 mins by Sypro orange dye based differential scanning fluorimetry.
The nature of test [2]: Inhibition of Pseudomonas aeruginosa N-terminal His6-tagged FabG expressed in Escherichia coli BL21 (DE3) using AcAcCoA as substrate assessed as NADPH consumption measured for 6 to 10 mins in presence of NADPH by spectrophotometric analysis.
Test [3] can be described thus: Inhibition of Klebsiella pneumoniae N-terminal His6-tagged FabG1 expressed in Escherichia coli BL21 (DE3) using AcAcCoA as substrate assessed as NADPH consumption measured for 6 to 10 mins in presence of NADPH by spectrophotometric analysis.
The subject of a further test is Staphylococcus aureus. The test is described as follows: Allosteric binding affinity to Staphylococcus aureus N-terminal His6-tagged FabG expressed in Escherichia coli BL21 (DE3) assessed as protein destabilization by measuring decrease in melting temperature at 1 mM incubated for 15 mins by Sypro orange dye based differential scanning fluorimetry.
The nature of test [4]: Inhibition of Salmonella typhimurium N-terminal His6-tagged FabG expressed in Escherichia coli BL21 (DE3) using AcAcCoA as substrate assessed as NADPH consumption measured for 6 to 10 mins in presence of NADPH by spectrophotometric analysis. More on the design: species or system Salmonella enterica subsp. enterica serovar Typhimurium.
Test [5] can be described thus: Inhibition of Escherichia coli N-terminal His6-tagged FabG expressed in Escherichia coli BL21 (DE3) using AcAcCoA as substrate assessed as NADPH consumption measured for 6 to 10 mins in presence of NADPH by spectrophotometric analysis.
Test [6] can be described thus: Inhibition of Staphylococcus aureus N-terminal His6-tagged FabG expressed in Escherichia coli BL21 (DE3) using AcAcCoA as substrate assessed as NADPH consumption measured for 6 to 10 mins in presence of NADPH by spectrophotometric analysis.
The subject of test [7] is Salmonella enterica subsp. enterica serovar Typhimurium. The test is described as follows: Allosteric binding affinity to Salmonella typhimurium N-terminal His6-tagged FabG expressed in Escherichia coli BL21 (DE3) assessed as protein destabilization by measuring decrease in melting temperature at 1 mM incubated for 15 mins by Sypro orange dye based differential scanning fluorimetry.

A short description of test [8]: Inhibition of Acinetobacter baumannii N-terminal His6-tagged FabG expressed in Escherichia coli BL21 (DE3) using 3-OHdNAC as substrate assessed as NADPH formation incubated for 2 hrs in presence of NADP by fluorescence based analysis.
Test [9] can be described thus: Inhibition of Acinetobacter baumannii N-terminal His6-tagged FabG expressed in Escherichia coli BL21 (DE3) using AcAcCoA as substrate assessed as NADPH consumption measured for 6 to 10 mins in presence of NADPH by spectrophotometric analysis.
The test system of test [10] is Acinetobacter baumannii. The test is described as follows: Allosteric binding affinity to Acinetobacter baumannii N-terminal His6-tagged FabG expressed in Escherichia coli BL21 (DE3) assessed as melting temperature at 1 mM incubated for 15 mins by Sypro orange dye based differential scanning fluorimetry (reference value: 61.3 degreeC).
The subject of test [11] is Acinetobacter baumannii. The test is described as follows: Allosteric binding affinity to Acinetobacter baumannii N-terminal His6-tagged FabG expressed in Escherichia coli BL21 (DE3) assessed as reduction in NADPH bound protein fraction at 100 to 500 uM by fluorescence based analysis. As to conditions: dose 100-500 µM.

Structures are written as SMILES. Active and inactive are the calls of the source. The calls are words filed in the database; no cut-off is given here.

For the compound `CCOC(=O)c1c(CN(C)C)n(-c2ccccc2)c2cc(Br)c(O)cc12`, the result (in the test on Pseudomonas aeruginosa; in the test on Klebsiella pneumoniae; in the test with Escherichia coli; in the test with Staphylococcus aureus; in test [7]; with Acinetobacter baumannii [11]) was Active. Also, the IC50 amounted to 35 µM in [1]; 19.7 µM in test [2]; 13.8 µM in test [3]; 12 µM in [4]; 7 µM in test [5]; 70.7 µM in test [6]. Besides, the IC50 in test [8] turned out to be 0.36 µM; in [9] it was 64 µM. Moreover, the Tm in the test on Acinetobacter baumannii [10] was determined as 58.5 °C.

`O=C(Nc1ccc(Br)cc1C(=O)O)c1cccs1`: the IC50 in test [1] worked out at 5.1 µM; in test [2], 3.1 µM; in test [3] it was 186 µM; in test [4], 175 µM; in test [9], 33.4 µM.

As for `O=c1[nH]c(SCc2c(Cl)cccc2Cl)nc2ccnn12`, the IC50 in test [1] worked out at 22 µM; in test [2], 30.9 µM; in [3], 137 µM; in [4] it was 150 µM; in test [5], 19.9 µM.
